Results as given in patent publication US20220314021A1, “METHOD FOR D[…] […] PHOTODYNAMIC THERAPY AND PHOTODYNAMIC THERAPY APPARATUS” (OTSUKA ELECTRONICS CO., LTD., priority 2019, published 2022).

Tested on: Jurkat cells derived from human T-cell leukemia
Test: cell killing assay by PDT in Jurkat cells (630 nm, Cell Counting Kit-8)
Type: cell-based
Details: 5-ALA loading 0-1 mmol/L, light irradiation 30 J/cm^2, 630 nm
Method: For Jurkat cells derived from human T-cell leukemia which is a disease classification different from that of the human adult T-cell leukemia/lymphoma clinically, amounts of protoporphyrin IX accumulated in the cells by 5-ALA loading (0, 0.0625, 0.125, 0.25, 0.5 and 1 mmol/L) were measured using the fluorescence detection high-performance liquid chromatography method, and then light irradiation (30 J/cm^2) with a central wavelength of 630 nm was further performed as the cell killing assay by PDT, and then cell viabilities (%) using the cell counting kit (Cell Counting Kit-8) were calculated.

**Q.** With `NCC(=O)CCC(=O)O` [5-ALA, 5-aminolevulinic acid] as the compound, how does the “cell viabilities versus the regression curve of FIG. 3” value read?
**A.** Its value is “located on the regression curve described in FIG. 3”.
